In ChEMBL document CHEMBL4689842, “EUbOPEN Chemogenomics Library wave 1” (2021):

Experiments:
Format in all cases: toxicity, cell-based
Fibroblast = experiment: Incucyte cell viability with human fibroblast; conditions: 10 µM, compound concentration 10 uM
HEK-293T = experiment: Incucyte cell viability with HEK293T; conditions: human, 10 µM, compound concentration 10 uM
U2OS = experiment: Incucyte cell viability with U2OS; conditions: human, 10 µM, compound concentration 10 uM
[1] = 0 h, replicate number 1, timepoint 0 hours
[2] = 0 h, replicate number 2, timepoint 0 hours
[3] = 6 h, replicate number 1, timepoint 6 hours
[4] = 12 h, replicate number 1, timepoint 12 hours
[5] = 18 h, replicate number 1, timepoint 18 hours
[6] = 24 h, replicate number 1, timepoint 24 hours
[7] = 24 h, replicate number 2, timepoint 24 hours
[8] = 6 h, replicate number 2, timepoint 6 hours
[9] = 12 h, replicate number 2, timepoint 12 hours
[10] = 18 h, replicate number 2, timepoint 18 hours
Also: filed as whole numbers so only -1 and 0 and 1 occur.

SMILES	Growth Rate (Fibroblast; [1])	Growth Rate (Fibroblast; [3])	Growth Rate (Fibroblast; [4])	Growth Rate (Fibroblast; [5])	Growth Rate (Fibroblast; [6])	Growth Rate (Fibroblast; [7])	Growth Rate (HEK-293T; [1])	Growth Rate (HEK-293T; [3])	Growth Rate (HEK-293T; [8])	Growth Rate (HEK-293T; [4])	Growth Rate (HEK-293T; [9])	Growth Rate (HEK-293T; [5])	Growth Rate (HEK-293T; [10])	Growth Rate (HEK-293T; [6])	Growth Rate (U2OS; [1])	Growth Rate (U2OS; [4])	Growth Rate (U2OS; [9])	Growth Rate (U2OS; [5])	Growth Rate (U2OS; [6])	Growth Rate (U2OS; [8])	also measured
C[C@@H](N)Cc1c[nH]cn1.Cl.Cl	1	0	0	0	0	1	0	1	0	1	0	1	0	1	1	0	1	0	0	–	Growth Rate (Fibroblast; [2]): 0; Growth Rate (HEK-293T; [7]): 0; Growth Rate (U2OS; [3]): 0; Growth Rate (U2OS; [10]): 1; Growth Rate (U2OS; [7]): 1
CCCCC#Cc1nc(NC)c2ncn([C@@H]3O[C@H](CO)[C@@H](O)[C@H]3O)c2n1	0	1	1	1	1	–	0	0	1	0	1	0	1	0	0	1	0	1	1	–	Growth Rate (HEK-293T; [7]): 1; Growth Rate (U2OS; [3]): 0
CCC(=O)NC1Cc2ccccc2C(c2ccccc2)C1 (configuration not stated)	0	0	0	0	0	–	0	1	0	0	–	0	–	0	0	1	–	1	0	0	Growth Rate (U2OS; [10]): 0
Cc1cc2c(cc1C1(c3ccc(C(=O)O)cn3)CC1)C(C)(C)CCC2(C)C	1	0	0	1	0	1	0	1	–	1	0	1	0	0	0	1	–	1	1	–	Growth Rate (Fibroblast; [2]): 0; Growth Rate (Fibroblast; [8]): 1
CC(C)C[C@H](NC(=O)N1CCCCCC1)C(=O)N[C@H](Cc1cn(C)c2ccccc12)C(=O)N[C@H](Cc1ccccn1)C(=O)O	0	–	–	1	1	0	0	0	1	0	1	1	–	1	0	–	1	1	1	1	Growth Rate (Fibroblast; [8]): 0; Growth Rate (Fibroblast; [9]): 0
CC(C)c1ccc(CC(=O)N2CCC[C@@H](c3cccc(OC(C)(C)C(=O)O)c3)C2)cc1	–	0	1	0	0	–	1	0	1	1	–	0	–	0	0	–	1	1	1	0	Growth Rate (Fibroblast; [9]): 0; Growth Rate (HEK-293T; [2]): 0; Growth Rate (HEK-293T; [7]): 1
Cc1cc2c(cc1-c1cc(/C=C/C(=O)O)ccc1O)C(C)(C)CCC2(C)C	0	–	1	1	1	–	0	1	–	1	–	1	–	1	0	1	0	1	1	0	Growth Rate (U2OS; [10]): 0
C/C(=N\NC(=O)[C@@H]1C(=O)NC[C@H]1c1ccccc1)c1cccc(Br)c1	1	0	0	0	1	0	1	0	–	0	–	0	–	0	0	1	0	0	0	–	Growth Rate (HEK-293T; [2]): 0; Growth Rate (U2OS; [3]): 0
COc1cc(OC)c(NC(=O)c2ccc(Cc3cc4c(cc3C)C(C)(C)CCC4(C)C)o2)c(OC)c1	0	0	–	1	1	–	1	0	1	0	–	0	–	0	0	1	–	1	0	1	Growth Rate (Fibroblast; [9]): 1; Growth Rate (HEK-293T; [2]): 0
Cc1c(C2=CCN(C(=O)N(C)C(C)C)CC2)nnn1-c1cccnc1F	1	0	0	0	0	1	0	1	–	1	–	0	1	1	0	1	–	1	1	0	Growth Rate (Fibroblast; [2]): 0; Growth Rate (Fibroblast; [9]): 1; Growth Rate (Fibroblast; [10]): 1
